Source: patent US11028090B2 (Dong Wha Pharm. Co., Ltd., priority 2017, dated 2021)
Read-outs that look alike come from different tables or passages of the source.

Legend:
[1] = target: BRD4 (BD1+BD2) bromodomain (Homo sapiens (Human), UniProt O60885); test: BRD4 binding inhibition (AlphaScreen, GST-BRD4 vs tetraacetylated histone H4 peptide)
Procedure, shortened: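 AlphaScreen read after 30 min dark incubation at room temperature with glutathione acceptor/streptavidin donor beads (10 μg/ml each). The beads were added to compound plus 100 nM biotin-H4 (K5,8,12,16-acetyl) peptide and 100 nM GST-BRD4 BD1+BD2 in pH 7.4 HEPES/Tween/BSA/DTT buffer.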

[2] = tested on: acute myelogenous leukemia cells (MV-4-11 cells); test: Cytotoxicity to acute myelogenous leukemia cells (MV-4-11 cells), CCK-8; details: Homo sapiens, MV4-11, 72 h
[3] = GST-BRD4 (BD1+BD2) / biotinylated acetyl-histone H4 (Lys5,8,12,16) peptide, read-out: IC50, BRD4 binding inhibition
[4] = GST-BRD4 (BD1+BD2) vs biotinylated acetyl-histone H4 peptide, AlphaScreen, read-out: BRD4 IC50
[5] = read-out: IC50, cytotoxicity against acute myelogenous leukemia cells
[6] = read-out: MV-4-11 Cytotoxicity IC50

Row | SMILES | IC50 [1, 3] | IC50 [1, 4] | IC50 [2, 5] | IC50 [2, 6]
1 | COCCOc1ccc2c(c1)nc(NCCCCNC(=O)NC1CCCCC1)c1nnc(C)n12 [Example 426, 1-cyclohexyl-3-{4-[7-(2-methoxy-ethoxy)-1-methyl-[1,2,4]triazolo[4,3-a]quinoxaline-4-ylamino]-butyl}-urea] | ≤ 50 nM | 17 nM | ≤ 200 nM | 190 nM
2 | CCOc1ccc2c(c1)nc(NCCCCNC(=O)OC(C)(C)C)c1nnc(C)n12 [Example 440, [4-(7-ethoxy-1-methyl-[1,2,4]triazolo[4,3-a]quinoxaline-4-ylamino)-butyl]-carbamic acid-tert-butylester] | ≤ 10 nM | 9 nM |  | 580 nM
3 | COC(=O)c1ccc2c(c1)nc(NCCCCNC(=O)CC(C)C)c1nnc(C)n12 [Example 199, 1-methyl-4-[4-(3-methyl-butyrylamino)-butylamino]-[1,2,4]triazolo[4,3-a]quinoxaline-7-carboxylic acid methylester] |  | 58 nM | ≤ 200 nM | 49 nM
4 | CCCOC(=O)NCCCCNc1nc2cc(-c3nc4ccccc4n3C)ccc2n2c(C)nnc12 [Example 228, {4-[1-methyl-7-(1-methyl-1H-benzoimidazole-2-yl)-[1,2,4]triazolo[4,3-a]quinoxaline-4-ylamino]-butyl}-carbamic acid propylester] | ≤ 10 nM | 7 nM | ≤ 200 nM | 140 nM
5 | CCC(C)CC(=O)NCCCCNc1nc2c(OC)c(OC)c(OC)cc2n2c(C)nnc12 (centres unmarked) [Example 196, 3-methyl-pentanoic acid-[4-(6,7,8-trimethoxy-1-methyl-[1,2,4]triazolo[4,3-a]quinoxaline-4-ylamino)-butyl]-amide] | ≤ 50 nM | 32 nM |  | 550 nM
6 | Cc1nnc2c(NCCCCNC(=O)c3ccccc3Cl)nc3cc(OCCN4CCOCC4)ccc3n12 [Example 439, 2-chloro-N-{4-[1-methyl-7-(2-morpholine-4-yl-ethoxy)-[1,2,4]triazolo[4,3-a]quinoxaline-4-ylamino]-butyl}-benzamide] | ≤ 50 nM | 38 nM | ≤ 200 nM | 100 nM
7 | COc1cc2nc(NCCCCNC(=O)Cc3ccco3)c3nnc(C)n3c2cc1OC [Example 85, N-[4-(7,8-dimethoxy-1-methyl-[1,2,4]triazolo[4,3-a]quinoxaline-4-ylamino)-butyl]-2-furan-2-yl-acetamide] | ≤ 50 nM | 27 nM | ≤ 200 nM | 50 nM
8 | COc1cc2nc(NCCCCNC(=O)c3ccccc3Cl)c3nnc(C)n3c2cc1C [Example 470] |  | 63 nM |  | 220 nM
9 | COCCOc1ccc2c(c1)nc(NCCCCNC(=O)C=C(C)C)c1nnc(C)n12 [Example 378, 3-methyl-butene-2-oic acid-{4-[7-(2-methoxy-ethoxy)-1-methyl-[1,2,4]triazolo[4,3-a]quinoxaline-4-ylamino]-butyl}-amide] | ≤ 50 nM | 14 nM |  | 290 nM
10 | CCOc1ccc2c(c1)nc(NCCCCNC(=O)OC1CCCC1)c1nnc(C)n12 [Example 445, [4-(7-ethoxy-1-methyl-[1,2,4]triazolo[4,3-a]quinoxaline-4-ylamino)-butyl]-carbamic acid cyclopentylester] | ≤ 50 nM | 13 nM | ≤ 200 nM | 100 nM
11 | COCCOc1ccc2c(c1)nc(NCCCCNC(=O)C(NC(=O)OC(C)(C)C)C(C)C)c1nnc(C)n12 (centres unmarked) [Example 396, (1-{4-[7-(2-methoxy-ethoxy)-1-methyl-[1,2,4]triazolo[4,3-a]quinoxaline-4-ylamino]-butylcarbamoyl}-2-methyl-propyl)-carbamic acid-tert-butylester] | ≤ 10 nM | 7 nM |  | 760 nM
12 | COc1cc2nc(NCCCCNC(=O)C(C)C)c3nnc(C)n3c2cc1OC [Example 70, N-[4-(7,8-dimethoxy-1-methyl-[1,2,4]triazolo[4,3-a]quinoxaline-4-ylamino)-butyl]-isobutyramide] | ≤ 50 nM |  |  | 370 nM
13 | Cc1nnc2c(NCCCCNC(=O)OC3CCCC3)nc3cc(OCCN4CCOCC4)ccc3n12 [Example 437, {4-[1-methyl-7-(2-morpholine-4-yl-ethoxy)-[1,2,4]triazolo[4,3-a]quinoxaline-4-ylamino]-butyl}-carbamic acid cyclopentylester] | ≤ 50 nM | 31 nM | ≤ 200 nM | 70 nM
14 | COCCOc1ccc2c(c1)nc(NCCCCNC(=O)c1cccc(F)c1)c1nnc(C)n12 [Example 410, 3-fluoro-N-{4-[7-(2-methoxy-ethoxy)-1-methyl-[1,2,4]triazolo[4,3-a]quinoxaline-4-ylamino]-butyl}-benzamide] | ≤ 50 nM | 12 nM |  | 790 nM

Second part, led by results:

Row | IC50 [1, 3] | IC50 [1, 4] | SMILES | IC50 [2, 5] | IC50 [2, 6]
15 |  | 76 nM | CCc1nnc2c(NCCCCNC(=O)OC(C)(C)C)nc3cc(OC)c(OC)cc3n12 [Example 594, [4-(1-ethyl-7,8-dimethoxy-[1,2,4]triazolo[4,3-a]quinoxaline-4-ylamino)-butyl]-carbamic acid-tert-butylester] |  | 880 nM
16 | ≤ 10 nM | 7 nM | CCCNc1cc2c(cc1OC)nc(NCCCCNC(=O)CC(C)C)c1nnc(C)n12 [Example 559, N-[4-(7-methoxy-1-methyl-8-propylamino-[1,2,4]triazolo[4,3-a]quinoxaline-4-ylamino)-butyl]-3-methyl-butyramide] | ≤ 200 nM | 141 nM
17 | ≤ 50 nM | 40 nM | COc1cc2nc(NCCCCNC(=O)CC(C)C)c3nnc(C)n3c2cc1F [Example 574, N-[4-(8-fluoro-7-methoxy-1-methyl-[1,2,4]triazolo[4,3-a]quinoxaline-4-ylamino)-butyl]-3-methyl-butyramide] | ≤ 200 nM | 45 nM
18 | ≤ 50 nM | 28 nM | COc1cc2nc(NCCCCNC(=O)CC(C)C)c3nnc(C)n3c2cc1NC(=O)Nc1ccccc1 [Example 568, N-{4-[7-methoxy-1-methyl-8-(3-phenyl-ureido)-[1,2,4]triazolo[4,3-a]quinoxaline-4-ylamino]-butyl}-3-methyl-butyramide] |  | 658 nM
19 | ≤ 50 nM | 12 nM | CCC(C)CC(=O)NCCCCNc1nc2cc(-n3ccnc3)ccc2n2c(C)nnc12 (centres unmarked) [Example 495, 3-methyl-pentanoic acid-[4-(7-imidazole-1-yl-1-methyl-[1,2,4]triazolo[4,3-a]quinoxaline-4-ylamino)-butyl]-amide] | ≤ 200 nM | 29 nM
20 | ≤ 50 nM | 21 nM | Cc1nnc2c(NCCCCNC(=O)CC(C)C)nc3ccc([N+](=O)[O-])cc3n12 [Example 550, 3-methyl-N-[4-(1-methyl-8-nitro-[1,2,4]triazolo[4,3-a]quinoxaline-4-ylamino)-butyl]-butyramide] | ≤ 200 nM | 157 nM
21 | ≤ 50 nM | 12 nM | Cc1nnc2c(NCCCCNC(=O)CC(C)C)nc3ccc(N)cc3n12 [Example 551, N-[4-(8-amino-1-methyl-[1,2,4]triazolo[4,3-a]quinoxaline-4-ylamino)-butyl]-3-methyl-butyramide] | ≤ 200 nM | 135 nM
